For 61 compounds, IC50 results are on record in US20170037028A1 (BAYER PHARMA AKTIENGESELLSCHAFT, priority 2013, published 2017).

The target in this assay is T1, GLUT1 (Homo sapiens, UniProt P11166).
T1 sequence (P11166 1-492): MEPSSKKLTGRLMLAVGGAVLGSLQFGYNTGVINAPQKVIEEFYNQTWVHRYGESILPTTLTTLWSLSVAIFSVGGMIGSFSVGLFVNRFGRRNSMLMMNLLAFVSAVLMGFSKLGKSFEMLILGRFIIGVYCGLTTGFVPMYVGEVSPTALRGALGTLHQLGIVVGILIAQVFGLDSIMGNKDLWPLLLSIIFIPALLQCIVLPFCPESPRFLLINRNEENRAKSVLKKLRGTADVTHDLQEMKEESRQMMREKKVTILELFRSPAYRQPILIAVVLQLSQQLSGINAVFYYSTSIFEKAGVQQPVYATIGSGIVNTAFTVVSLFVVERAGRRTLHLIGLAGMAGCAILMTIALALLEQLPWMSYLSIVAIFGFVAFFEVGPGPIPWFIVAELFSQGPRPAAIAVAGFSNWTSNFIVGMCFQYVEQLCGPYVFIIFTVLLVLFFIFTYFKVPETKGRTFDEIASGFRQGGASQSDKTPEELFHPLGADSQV
Description: Indirect measurement of GLUT1 activity by quantification of intracellular ATP levels (glucose induced ATP increase). Format: cell-based. Conditions: read-out: IC50 regarding glucose induced ATP increase (GLUT1 inhibition). Also on record: endogenous in cells; host or cells: DLD1 or CHO-K1. Summed up:
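DLD1 or CHO-K1 cells were starved overnight in glucose-free medium with 1% FCS, then combined with an oxidative phosphorylation inhibitor. GLUT1 activity was read as glucose-induced ATP increase, GLUT2 as fructose-induced. Intracellular ATP was quantified by CellTiter-Glo luminescence.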
Usually IC50 stands for the concentration needed to halve the response being measured. Take `Cc1nn(Cc2ccc(C(=O)NCCN(C)C)cn2)c(C)c1NC(=O)c1cc(C(F)(F)F)nc2ccc(Br)cc12` [Example 1292]: the IC50 was 7380 nM.
Then `COc1cc(Cn2nc(C)c(NC(=O)c3cc(C)nc4ccc(C)cc34)c2C)cc(OC)c1` [Example 1293], with 7790 nM; and `Cc1nn(Cc2ccc(F)cc2)c(C)c1NC(=O)c1cc(C(F)(F)F)nc2ccc(C(N)=O)cc12` [Example 1294], with 8120 nM; and `Cc1nn(Cc2cc(F)ccc2F)c(C)c1NC(=O)c1cc(C(F)(F)F)nc2c(Cl)cc(Cl)cc12` [Example 1295], with 8150 nM.
To `Cc1ccc2nc(C)cc(C(=O)Nc3c(C)nn(Cc4cc(F)cc(F)c4)c3C)c2c1` [Example 1296] belongs 11100 nM; to `Cc1nn(Cc2cccc(C(F)(F)F)c2)c(C)c1NC(=O)c1cc(C(F)(F)F)nc2ccc(Br)cc12` [Example 1297], 11100 nM.
`Cc1ccc2nc(C)cc(C(=O)Nc3c(C)nn(Cc4ccccc4C(F)(F)F)c3C)c2c1` [Example 1298]: the IC50 was found to be 11100 nM.
Then `Cc1nn(Cc2ccccc2C(F)(F)F)c(C)c1NC(=O)c1cc(C(F)(F)F)nc2c(Cl)cc(Cl)cc12` [Example 1299], with 11100 nM.
To `Cc1ccc2nc(C)cc(C(=O)Nc3c(C)nn(Cc4cccc(C(F)(F)F)c4)c3C)c2c1` [Example 1300] belongs 11100 nM.
To `Cc1nn(Cc2ccccc2C(F)(F)F)c(C)c1NC(=O)c1cc(C(F)(F)F)nc2ccc(Br)cc12` [Example 1301] belongs 11100 nM.
As to `Cc1nn(Cc2ccc(C(F)(F)F)cc2)c(C)c1NC(=O)c1cc(C(F)(F)F)nc2ccc(Br)cc12` [Example 1302], the IC50 is 11100 nM.
Then `COc1cc(C(=O)Nc2c(C)nn(Cc3cccc(C(F)(F)F)c3)c2C)c2ccccc2n1` [Example 1303], with 11100 nM; and `COc1cc(C(=O)Nc2c(C)nn(Cc3cc(F)ccc3F)c2C)c2ccccc2n1` [Example 1304], with 11100 nM.
Then `COc1cc(C(=O)Nc2c(C)nn(Cc3ccccc3C(F)(F)F)c2C)c2ccccc2n1` [Example 1305], with 11100 nM; and `Cc1nn(Cc2cccc(C(F)(F)F)c2)c(C)c1NC(=O)c1cc(C(F)(F)F)nc2c(Cl)cc(Cl)cc12` [Example 1306], with 11100 nM.
Then `Cc1nn(Cc2ccc(F)cc2)c(C)c1NC(=O)c1cc(C(F)(F)F)nc2c(C(F)(F)F)cccc12` [Example 1307], with 14300 nM; and `Cc1cc(C(=O)Nc2c(C)nn(Cc3ccc(F)cc3)c2C)c2cccc(C#N)c2n1` [Example 1308], with 16900 nM.
On to `Cc1cc(C(=O)Nc2c(C)nn(Cc3ccc(F)cc3)c2C)c2ccc(C#N)cc2n1` [Example 1309], for which the IC50 stood at 17500 nM.
Regarding `Cc1c(NC(=O)c2cc(C(F)(F)F)nc3ccc(Br)cc23)c(C#N)nn1Cc1ccc(F)cc1` [Example 1338], the IC50 is 26.3 nM.
For the compound `Cc1nn(Cc2cscn2)c(C)c1NC(=O)c1cc(C(N)=O)nc2ccccc12` [Example 1339], the IC50 came to 72.2 nM.
Consider `COc1ccc(CCn2nc(C)c(NC(=O)c3cc(OC)nc4ccccc34)c2C)cc1` [Example 1341], for which the IC50 turned out to be 297 nM.
Then `Cc1nn(Cc2cnn(C)c2C)c(C)c1NC(=O)c1cc(C(F)(F)F)nc2ccc(Br)cc12` [Example 1342], with 26.5 nM; and `Cc1nn(CCOc2ccc(C#N)cc2)c(C)c1NC(=O)c1cc(C(F)(F)F)nc2ccc(Br)cc12` [Example 1344], with 323 nM; and `COc1ccc(CCn2nc(C)c(NC(=O)c3cc(C(N)=O)nc4cc(F)c(Cl)cc34)c2C)cc1` [Example 1346], with 10.6 nM.
Then `Cc1nn(CC2CNC(=O)O2)c(C)c1NC(=O)c1cc(C(N)=O)nc2ccccc12` (stereo not shown) [Example 1347], with 3950 nM; and `COc1cc(C(=O)Nc2c(C)nn(CCOc3ccc(C#N)cc3)c2C)c2ccccc2n1` [Example 1348], with 188 nM.
To `Cc1nn(Cc2ccc(C#N)cc2F)c(C)c1NC(=O)c1cc(C(F)(F)F)nc2ccc(Br)cc12` [Example 1349] belongs 7.5 nM; to `COc1ccc(CCn2nc(C)c(NC(=O)c3cc(C(F)(F)F)nc4ccc(Br)cc34)c2C)cc1` [Example 1350], 41.6 nM; to `Cc1nn(Cc2cscn2)c(C)c1NC(=O)c1cc(C(F)(F)F)nc2ccc(Br)cc12` [Example 1351], 134 nM.
In the case of `COc1cc(C(=O)Nc2c(C)nn(Cc3ccc(C#N)cc3F)c2C)c2ccccc2n1` [Example 1352], the IC50 came to 35.1 nM.
Then `COc1ccc(CCn2nc(C)c(NC(=O)c3cc(C(N)=O)nc4ccccc34)c2C)cc1` [Example 1353], with 38.9 nM.
To `Cc1nc(Cn2nc(C)c(NC(=O)c3cc(C(F)(F)F)nc4ccc(Br)cc34)c2C)cs1` [Example 1354] belongs 48.9 nM; to `CC(C)c1nn(Cc2ccc(F)cc2)c(C(C)C)c1NC(=O)c1cc(C(F)(F)F)nc2ccc(Br)cc12` [Example 1355], above 13000 nM.
Turning to `Cc1ccc2nc(C)cc(C(=O)Nc3c(C(C)C)nn(Cc4ccc(F)cc4)c3C(C)C)c2c1` [Example 1356], the IC50 is above 13000 nM.
To `CC(C)c1nn(Cc2ccc(F)cc2)c(C(C)C)c1NC(=O)c1cc(C(F)(F)F)nc2cc(F)c(F)cc12` [Example 1357] belongs above 13000 nM; to `Cc1c(NC(=O)c2cc(C(F)(F)F)nc3ccc(Br)cc23)c(C(F)(F)F)nn1Cc1ccc(C#N)cc1F` [Example 1358], 4.3 nM.
To `COc1cc(C(=O)Nc2c(C(F)(F)F)nn(Cc3ccc(C#N)cc3F)c2C)c2ccccc2n1` [Example 1359] belongs 22 nM; to `Cc1c(NC(=O)c2cc(C(F)(F)F)nc3ccc(Br)cc23)c(C(F)(F)F)nn1Cc1ccncc1` [Example 1365], 167 nM; to `COc1cc(C(=O)Nc2c(C(F)(F)F)nn(Cc3ccncc3)c2C)c2ccccc2n1` [Example 1366], 38.1 nM.
Then `Cc1c(NC(=O)c2cc(C(N)=O)nc3ccccc23)c(C(F)(F)F)nn1Cc1ccncc1` [Example 1367], with 275 nM; and `Cc1c(NC(=O)c2cc(C(N)=O)nc3cc(F)c(Cl)cc23)c(C(F)(F)F)nn1Cc1ccncc1` [Example 1368], with 29.3 nM.
As to `Cc1nn(Cc2ccc(C(C)(C)C)cc2)c(C)c1NC(=O)c1cc(C(N)=O)nc2ccccc12` [Example 1369], the IC50 was 143 nM.
`Cc1c(NC(=O)c2cc(C(N)=O)nc3ccccc23)c(C(F)(F)F)nn1Cc1ccc(C(C)(C)C)cc1` [Example 1370]: the IC50 is 1090 nM.
As for `Cc1c(NC(=O)c2cc(C(N)=O)nc3ccccc23)c(C(F)(F)F)nn1CCc1ccc(F)cc1` [Example 1371], the IC50 was 144 nM.
To `COc1cc(C(=O)Nc2c(C(F)(F)F)nn(CCc3ccc(F)cc3)c2C)c2ccccc2n1` [Example 1372] belongs 950 nM.
Then `Cc1c(NC(=O)c2cc(C(F)(F)F)nc3ccc(Br)cc23)c(C(F)(F)F)nn1CCc1ccc(F)cc1` [Example 1373], with 1990 nM.
To `COc1cc(C(=O)Nc2c(C)nn(C(C)c3ccc(F)cc3)c2C)c2ccccc2n1` (stereo not shown) [Example 1375] belongs 15.1 nM; to `COc1cc(C(=O)Nc2c(C(F)(F)F)nn(Cc3ccc(C#N)cc3)c2C)c2cc(F)ccc2n1` [Example 1376], 18.9 nM.
Turning to `Cc1ccc2nc(C(N)=O)cc(C(=O)Nc3c(C)nn(Cc4ccc(F)cc4)c3C)c2c1` [Example 1377], the IC50 was 1.7 nM.
Then `Cc1c(NC(=O)c2cc(C(N)=O)nc3ccc(S(N)(=O)=O)cc23)c(C(F)(F)F)nn1Cc1ccc(C#N)cc1` [Example 1382], with 5370 nM.
As for `Cc1nn(Cc2ccc(C(C)(C)C)cc2)c(C)c1NC(=O)c1cc(C(N)=O)nc2cc(F)ccc12` [Example 1383], the IC50 was found to be 140 nM.
Then `CCc1nn(Cc2ccc(F)cc2)c(CC)c1NC(=O)c1cc(C(N)=O)nc2c(F)cccc12` [Example 1384], with 425 nM; and `CCc1nn(Cc2ccc(F)cc2)c(CC)c1NC(=O)c1cc(C(N)=O)nc2cc(F)ccc12` [Example 1385], with 60.7 nM; and `CCc1nn(Cc2ccc(F)cc2)c(CC)c1NC(=O)c1cc(C(N)=O)nc2cc(F)c(Cl)cc12` [Example 1386], with 13.6 nM.
To `CCc1nn(Cc2ccc(F)cc2)c(CC)c1NC(=O)c1cc(C(N)=O)nc2ccccc12` [Example 1387] belongs 36.7 nM; to `CCc1nn(Cc2ccc(F)cc2)c(CC)c1NC(=O)c1cc(C(F)(F)F)nc2ccc(Br)cc12` [Example 1388], 1530 nM; to `Cc1c(NC(=O)c2cc(C(N)=O)nc3ccc(S(C)(=O)=O)cc23)c(C(F)(F)F)nn1Cc1ccc(C#N)cc1` [Example 1389], 1930 nM.
To `COC(=O)c1cc(C(=O)Nc2c(C)nn(Cc3ccc(C#N)cc3)c2C)c2ccc(OC)cc2n1` [Example 1390] belongs 229 nM; to `CCc1nn(Cc2ccc(F)cc2)c(CC)c1NC(=O)c1cc(C(N)=O)nc2cc(Cl)ccc12` [Example 1391], 362 nM; to `Cc1c(NC(=O)c2cc(C(N)=O)nc3cc(F)ccc23)c(C(F)(F)F)nn1Cc1ncccc1C#N` [Example 1392], 15.5 nM.
Regarding `Cc1c(NC(=O)c2cc(C(N)=O)nc3ccccc23)c(C(F)(F)F)nn1Cc1ncccc1C#N` [Example 1393], the IC50 is 15 nM.
